{"source": "patent US5116815A", "about": "“PF 1022 substance, method of treating helminthic parasitic infection and anthelmintic composition” (Meiji Seika Kaisha Ltd., priority 1989, dated 1992)", "key": {"[1]": {"system": "feline roundworms (Toxocara cati)", "assay": "Anthelmintic activity against cat large intestinal roundworms", "assay_type": "in vivo", "details": "cats", "description": "The PF 1022 substance was evaluated for its anthelmintic effect on feline roundworms (Toxocara cati) by orally administering the substance once to 12 cats found to be infected with the roundworms by scatoscopy.\nThe infected cats were used in three groups of 4 animals and given 0.2 mg/kg, 1 mg/kg and 5 mg/kg of the substance, respectively, admixed as such with a small portion of ordinary feed. The observation items were the number of roundworms eliminated during the 7 day observation period following administration and the number of remaining roundworms as found upon autopsy performed 7 days after administration."}, "[2]": {"assay": "Oral toxicity in mice (body weight gain, abnormalities)", "assay_type": "in vivo", "details": "300 mg/kg"}, "[3]": {"system": "roundworms (Toxocara canis)", "assay": "Anthelmintic effect on canine roundworms", "assay_type": "in vivo", "details": "dog, single oral dose 5 mg/kg", "description": "The PF 1022 substance was evaluated for its anthelmintic effect in dogs by orally administering it to dogs found to be infected with roundworms (Toxocara canis), hookworms (Ancylostoma caninum) and whipworms (Trichuris vulpisl), respectively, by scatoscopy.\nThe substance was orally administered once at the dose of 5 mg/kg to a dog infected with the roundworms or hookworms by admixing the substance with a small portion of the ordinary feed, and the worms eliminated and those remaining in the dog during 7 days following administration were counted."}, "[4]": {"system": "bovine twisted stomach worms (Haemonchus contortus)", "assay": "In vitro test tube motility test on bovine twisted stomach worms", "details": "physiological salt solution, 39-40 C", "description": "The PF 1022 substance was evaluated for its anthelmintic activity by adding it to test tubes in which bovine twisted stomach worms (Haemonchus contortus) isolated from the bovine fourth stomach were swimming.\nA physiological salt solution was distributed into 4 test tubes and warmed to 39°-40° C. Three to five twisted stomachworms collected from the bovine fourth stomach were put into the medium in each test tube and allowed to swim therein. An appropriate amount of the PF 1022 substance was dissolved in a small amount of dimethyl sulfoxide and the solution was added dropwise to the medium and, after stirring for admixing, the behavior of each worm was observed. The amount of the PF 1022 substance was adjusted so that the final concentrations in the culture medium in three tubes amounted to 2 ppm, 8 ppm and 40 ppm, respectively. Dimethyl sulfoxide alone was added dropwise to the remaining test tube, which served as a control."}, "[5]": {"system": "whipworms (Trichuris suis)", "assay": "Anthelmintic activity against swine whipworms", "assay_type": "in vivo", "details": "oral in feed; for Number of remaining worms: autopsy one week; for EPG Before administration: baseline; for EPG Upon autopsy: one week", "description": "The PF 1022 substance was evaluated for its anthelmintic effect on swine whipworms by orally administering it to swine found to be infected with whipworms (Trichuris suis) by scatoscopy.\nThe PF 1022 substance was administered either once at 1 mg/kg, 5 mg/kg or 10 mg/kg, or at a daily dose of 2.5 mg/kg or 5 mg/kg once daily for 2 consecutive days by admixing an amount of the substance as such equal to each dose with a small portion of the ordinary feed. After administration, the number of whipworm eggs in the feces of each animal was determined daily in terms of EPG. In three animals, the worms eliminated were counted as well. One week after initiation of administration, all the animals were sacrificed and autopsied and the worms remaining in the intestinal tract were counted."}, "[6]": {"system": "fourth stomachworms (Ostertaqia circumcincta) and small intestinal hairworms (Trichostrongylus colubriformis)", "assay": "Sheep digestive tract nematodes, mixed infection, EPG", "assay_type": "in vivo", "details": "mean of 6 animals; for EPG At autopsy: 7 days after administration; for EPG Before administration: baseline", "description": "The PF 1022 substance was evaluated for its anthelmintic effect in sheep mixedly infected with fourth stomachworms (Ostertaqia circumcincta) and small intestinal hairworms (Trichostrongylus colubriformis) by administering it orally to 24 sheep artificially infected with said two worm species.\nThe infected sheep were divided into 4 groups of 6 animals, which were respectively given 1 mg/kg, 5 mg/kg, 10 mg/kg and 0 mg/kg (control) of the substance suspended in 0.5% CMC, via a stomach catheter. The observation items were the number of parasite eggs per gram of feces (EPG) before administration, the EPG 7 days after administration, and the number of worms remaining in the fourth stomach and that of worms remaining in the intestinal tract as found upon autopsy 7 days after administration.\nEach numerical value given is the mean of 6 animals."}, "mammalian cell": {"system": "mammalian cell", "assay": "Mammalian cell chromosomal aberration test", "assay_type": "cell-based"}, "[7]": {"system": "feline hookworms (Ancylostoma tubaeforme)", "assay": "Anthelmintic activity against cat hookworms", "assay_type": "in vivo", "details": "cats", "description": "The PF 1022 substance was evaluated for its anthelmintic effect on feline hookworms (Ancylostoma tubaeforme) by orally administering the substance once to 12 cats found to be infected with said worms by scatoscopy.\nThe infected cats were divided into three groups of 4 animals and respectively given 0.2 mg/kg, 1 mg/kg and 5 mg/kg of the substance admixed as such with a small portion of the ordinary feed. The observation items were the number of worms eliminated during 7 days following administration and the number of remaining worms found upon autopsy 7 days after administration."}, "[8]": {"details": "single oral dose 1 mg/kg, 1 mg/kg"}, "[9]": {"details": "single oral dose 5 mg/kg, autopsy 7 days"}, "[10]": {"details": "2 administrations, 2.5 mg/kg/administration"}, "[11]": {"details": "2 administrations, 5 mg/kg/administration"}}, "note": "“And” between values parts separate entries of the source, which are not always exact repeats. Equal values may be shown once.", "data": [{"smiles": "CC(C)C[C@H]1C(=O)O[C@H](Cc2ccccc2)C(=O)N(C)[C@@H](CC(C)C)C(=O)O[C@H](C)C(=O)N(C)[C@@H](CC(C)C)C(=O)O[C@H](Cc2ccccc2)C(=O)N(C)[C@@H](CC(C)C)C(=O)O[C@H](C)C(=O)N1C", "note": "[PF 1022 substance]", "values": [{"measurement": "% Elimination", "setting": "[1]; single oral dose 0.2 mg/kg, 0.2 mg/kg", "result": "100% and 50.0%"}, {"measurement": "% Elimination", "setting": "[1]; [8]", "result": "100% and 80.0%"}, {"measurement": "% Elimination", "setting": "[1]; single oral dose 5 mg/kg", "result": 100, "unit": "%"}, {"measurement": "Number of remaining worms", "setting": "[1]; [9]", "result": 0}, {"measurement": "body weight gains and abnormalities", "setting": "[2]", "result": "normal body weight gains are obtained without any abnormalities"}, {"measurement": "elimination", "setting": "[3]", "result": 100, "unit": "%"}, {"measurement": "roundworms eliminated", "setting": "[3]; 7 days", "result": "six"}, {"measurement": "roundworms remaining", "setting": "[3]; 7 days", "result": "no roundworms were found remaining"}, {"measurement": "time until the worms stopped moving", "setting": "[4]; 2 ppm", "result": 25, "unit": "min"}, {"measurement": "time until the worms stopped moving", "setting": "[4]; 8 ppm", "result": 15, "unit": "min"}, {"measurement": "time until the worms stopped moving", "setting": "[4]; 40 ppm", "result": 10, "unit": "min"}, {"measurement": "% Elimination", "setting": "[5]; 1 administration, 1 mg/kg", "result": 4.0, "unit": "%"}, {"measurement": "Number of worms eliminated", "setting": "[5]; 1 administration, 1 mg/kg", "result": 14}, {"measurement": "Number of remaining worms", "setting": "[5]; 1 administration, 1 mg/kg", "result": 334}, {"measurement": "EPG Before administration", "setting": "[5]; 1 administration, 1 mg/kg", "result": 5500}, {"measurement": "EPG Upon autopsy", "setting": "[5]; 1 administration, 1 mg/kg", "result": 1200}, {"measurement": "% Elimination", "setting": "[5]; 1 administration, 10 mg/kg", "result": 100, "unit": "%"}, {"measurement": "Number of remaining worms", "setting": "[5]; 1 administration, 10 mg/kg", "result": 0}, {"measurement": "EPG Before administration", "setting": "[5]; 1 administration, 10 mg/kg", "result": 1800}, {"measurement": "EPG Upon autopsy", "setting": "[5]; 1 administration, 10 mg/kg", "result": 0}, {"measurement": "% Elimination", "setting": "[5]; [10]", "result": 100, "unit": "%"}, {"measurement": "EPG Upon autopsy", "setting": "[5]; [10]", "result": 0}, {"measurement": "% Elimination", "setting": "[5]; [11]", "result": 100, "unit": "%"}, {"measurement": "Number of remaining worms", "setting": "[5]; [11]", "result": 0}, {"measurement": "EPG Before administration", "setting": "[5]; [11]", "result": 100}, {"measurement": "EPG Upon autopsy", "setting": "[5]; [11]", "result": 0}, {"measurement": "EPG At autopsy", "setting": "[6]; oral 1 mg/kg", "result": 3114}, {"measurement": "EPG Before administration", "setting": "[6]; oral 1 mg/kg", "result": 2447}, {"measurement": "EPG At autopsy", "setting": "[6]; oral 5 mg/kg", "result": 2462}, {"measurement": "EPG Before administration", "setting": "[6]; oral 5 mg/kg", "result": 2458}, {"measurement": "EPG At autopsy", "setting": "[6]; oral 10 mg/kg", "result": 1970}, {"measurement": "EPG Before administration", "setting": "[6]; oral 10 mg/kg", "result": 2332}, {"measurement": "mammalian cell chromosomal aberration test result", "setting": "mammalian cell", "result": "negative"}, {"measurement": "% Elimination", "setting": "[7]; [8]", "result": "62.5% and 100% and 87.5% and 98.2%"}, {"measurement": "% Elimination", "setting": "[7]; single oral dose 5 mg/kg", "result": 100, "unit": "%"}, {"measurement": "Number of remaining worms", "setting": "[7]; [9]", "result": 0}]}]}
